Assay results reported in US20090181948A1, “DIAMINE DERIVATIVE” (KYOWA HAKKO KOGYO CO., LTD., priority 2005, published 2009).

Target: T1, histamine H3 receptor (Rattus norvegicus, UniProt Q9QYN8)
T1 construct: from tissue; host or cells: rat striatum (Sprague-Dawley, male, 6 weeks), membrane homogenate
Assay: Histamine H3 receptor binding assay ([3H]-Nα-methylhistamine binding to rat striatum homogenate)
Details: 1 μmol/L test compound; [3H]-Nα-methylhistamine 1 nmol/L; striata of Sprague-Dawley male rats, 25° C., 1 hour; read-out: Inhibition ratio of [3H]-Nα-methylhistamine binding
Method: To the striata of Sprague-Dawley male rats (6 weeks of age), a 10-fold volume of lysis buffer {50 mmol/L [[…] (Tris)]/HCl (pH 7.4), 5 mmol/L ethylenediaminetetraacetic acid (EDTA), a protease inhibitor mixture [1 mg/mL phenylmethylsulfonyl fluoride (PMSF), 1 μg/mL pepstatin A, 1 μg/mL leupeptin, 1 μg/mL chymostatin]} was added and the striata were homogenized. The resulting homogenate was centrifuged (30,000×g, 4° C., 30 min), and the obtained precipitate was resuspended in a 10-fold volume of lysis buffer, followed by centrifugation under the same condition. To the obtained precipitate, a 3-fold volume of lysis buffer was added to suspend the precipitate, and the resulting tissue homogenate was used for a test.
A test compound was dissolved in an assay buffer [50 mmol/L Tris/HCl (pH 7.4), 5 mmol/L EDTA], and [^3H]-N^α-methylhistamine (1 nmol/L) and the tissue homogenate (20 μg, in terms of protein amount) were added thereto, and then, the mixture was incubated at 25° C. for 1 hour. Then, the reaction was terminated by rapid suction filtration on a glass filter [GF/B: Whatman, previously soaked in 0.3 w/v % polyethylenimine for about 30 min]. Then, the glass filter was washed three times with 3 mL of assay buffer. This glass filter was transferred into a scintillation vial and dried at 60° C. for 30 minutes. Then, 0.5 mL of Ultimagold (Perkin Elmer) was added thereto, and the radioactivity (binding amount of [^3H]-N^α-methylhistamine) was measured using a liquid scintillation counter. The obtained value was used as a binding amount in the presence of the test compound. The same procedure as described above was carried out in the absence of the test compound, and the binding amount of [^3H]-N^α-methylhistamine obtained at this time was used as a binding amount in the absence of the test compound. Further, the binding amount of [^3H]-N^α-methylhistamine obtained in the presence of 10 μmol/L thioperamide was used as a non-specific binding amount. An inhibitory action of [^3H]-N^α-methylhistamine binding was represented by an inhibition ratio in terms of 1 μmol/L of the test compound calculated by the following Equation (1).
Inhibition ratio(%)={1−[(Binding amount in the presence of test compound)−(Non-specific binding amount)]/[(Binding amount in the absence of test compound)−(Non-specific binding amount)]}×100 (1)

T1 sequence (Q9QYN8 whole entry): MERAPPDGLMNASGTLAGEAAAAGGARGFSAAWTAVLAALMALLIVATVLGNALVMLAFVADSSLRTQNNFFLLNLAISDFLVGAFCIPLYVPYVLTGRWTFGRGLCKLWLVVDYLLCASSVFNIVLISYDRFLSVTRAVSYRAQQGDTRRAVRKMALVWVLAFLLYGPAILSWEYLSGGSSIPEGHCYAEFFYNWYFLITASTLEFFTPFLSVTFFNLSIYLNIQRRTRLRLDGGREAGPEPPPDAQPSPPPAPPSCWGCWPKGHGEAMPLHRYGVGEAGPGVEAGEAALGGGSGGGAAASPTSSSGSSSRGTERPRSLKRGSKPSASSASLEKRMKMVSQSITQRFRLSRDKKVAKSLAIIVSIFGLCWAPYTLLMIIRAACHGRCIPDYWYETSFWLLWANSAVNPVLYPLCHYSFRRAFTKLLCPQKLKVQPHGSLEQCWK

Question: How did the inhibition at 1 µM turn out when CC1CCCN(CCCN2CCN(CCCN3CC=CCC3)C2=C(C#N)C#N)C1 (stereo not shown) [Compound 87, {1-[3-(1,2,3,6-Tetrahydropyridin-1-yl)propyl]-3-[3-(3-methylpiperidino)propyl]imidazolidin-2-ylidene}malononitrile] was run?
Answer: ≥ 80%

Question: N#CC(C#N)=C1N(CCCN2CC=CCC2)CCN1CCCN1CC=CCC1 [Compound 88, {1,3-bis[3-(1,2,3,6-Tetrahydropyridin-1-yl)propyl]imidazolidin-2-ylidene}malononitrile] was tested. Which inhibition at 1 µM did it give?
Answer: ≥ 80%

Question: With N#CC(C#N)=C1N(CCCN2CC=CCC2)CCN1CCCN1CCCC1 [Compound 89, {1-[3-(1,2,3,6-Tetrahydropyridin-1-yl)propyl]-3-[3-(pyrrolidin-1-yl)propyl]imidazolidin-2-ylidene}malononitrile] as the compound, how does the inhibition at 1 µM read?
Answer: ≥ 80%

Question: How did the inhibition at 1 µM turn out when N#CC(C#N)=C1N(CCCN2CC=CCC2)CCN1CCCN1CCCCC1 [Compound 90, {1-[3-(1,2,3,6-Tetrahydropyridin-1-yl)propyl]-3-(3-piperidinopropyl)imidazolidin-2-ylidene}malononitrile] was run?
Answer: ≥ 80%

Question: With CC1CC(C)CN(CCCN2CCN(CCCN3CC=CCC3)C2=C(C#N)C#N)C1 (stereo not shown) [Compound 91, {1-[3-(1,2,3,6-Tetrahydropyridin-1-yl)propyl]-3-[3-(3,5-dimethylpiperidino)propyl]imidazolidin-2-ylidene}malononitrile] as the compound, how does the inhibition at 1 µM read?
Answer: ≥ 80%

Question: How did the inhibition at 1 µM turn out when CC1CCCN1CCCN1CCN(CCCN2CC=CCC2)C1=C(C#N)C#N (stereo not shown) [Compound 92, {1-[3-(1,2,3,6-Tetrahydropyridin-1-yl)propyl]-3-[3-(2-methylpyrrolidin-1-yl)propyl]imidazolidin-2-ylidene}malononitrile] was run?
Answer: ≥ 80%

Question: Which inhibition at 1 µM does the source give for CC1CCCCN1CCCN1CCN(CCCN2CCCC2)C1=C(C#N)C#N (stereo not shown) [Compound 93, {1-[3-(2-Methylpiperidino)propyl]-3-[3-(pyrrolidin-1-yl)propyl]imidazolidin-2-ylidene}malononitrile] here?
Answer: ≥ 80%

Question: How did the inhibition at 1 µM turn out when N#CC(C#N)=C1N(CCCN2CCCC2)CCN1CCCN1CCCC1 [Compound 94, {1,3-Bis[3-(pyrrolidin-1-yl)propyl]imidazolidin-2-ylidene}malononitrile] was run?
Answer: ≥ 80%

Question: How did the inhibition at 1 µM turn out when N#CC(C#N)=C1N(CCCN2CCCCC2)CCN1CCCN1CCCC1 [Compound 95, {1-(3-Piperidinopropyl)-3-[3-(pyrrolidin-1-yl)propyl]imidazolidin-2-ylidene}malononitrile] was run?
Answer: ≥ 80%

Question: CC1CC(C)CN(CCCN2CCN(CCCN3CCCC3)C2=C(C#N)C#N)C1 (stereo not shown) [Compound 96, {1-[3-(3,5-Dimethylpiperidino)propyl]-3-[3-(pyrrolidin-1-yl)propyl]imidazolidin-2-ylidene}malononitrile] was tested. Which inhibition at 1 µM did it give?
Answer: ≥ 80%

Question: With CC1CCCN1CCCN1CCN(CCCN2CCCC2)C1=C(C#N)C#N (stereo not shown) [Compound 97, {1-[3-(2-Methylpyrrolidin-1-yl)propyl]-3-[3-(pyrrolidin-1-yl)propyl]imidazolidin-2-ylidene}malononitrile] as the compound, how does the inhibition at 1 µM read?
Answer: ≥ 80%

Question: CC1CCCCN1CCCN1CCN(CCCN2CCCCC2)C1=C(C#N)C#N (stereo not shown) [Compound 98, {1-[3-(2-Methylpiperidino)propyl]-3-(3-piperidinopropyl)imidazolidin-2-ylidene}malononitrile] was tested. Which inhibition at 1 µM did it give?
Answer: ≥ 80%

Question: CC1CCCN(CCCN2CCN(CCCN3CCCCC3)C2=C(C#N)C#N)C1 (stereo not shown) [Compound 99, {1-[3-(3-Methylpiperidino)propyl]-3-(3-piperidinopropyl)imidazolidin-2-ylidene}malononitrile] was tested. Which inhibition at 1 µM did it give?
Answer: ≥ 80%

Question: How did the inhibition at 1 µM turn out when CC1CCN(CCCN2CCN(CCCN3CCCCC3)C2=C(C#N)C#N)CC1 [Compound 100, {1-[3-(4-Methylpiperidino)propyl]-3-(3-piperidinopropyl)imidazolidin-2-ylidene}malononitrile] was run?
Answer: ≥ 80%

Question: Which inhibition at 1 µM does the source give for N#CC(C#N)=C1N(CCCN2CCCCC2)CCN1CCCN1CCC(O)C1 (stereo not shown) [Compound 101, {1-[3-(3-Hydroxypyrrolidin-1-yl)propyl]-3-(3-piperidinopropyl)imidazolidin-2-ylidene}malononitrile] here?
Answer: ≥ 80%

Question: CC1CC(C)CN(CCCN2CCN(CCCN3CCCCC3)C2=C(C#N)C#N)C1 (stereo not shown) [Compound 102, {1-[3-(3,5-Dimethylpiperidino)propyl]-3-(3-piperidinopropyl)imidazolidin-2-ylidene}malononitrile] was tested. Which inhibition at 1 µM did it give?
Answer: ≥ 80%

Question: How did the inhibition at 1 µM turn out when CC1CC(C)CN(CCCN2CCN(CCCN3CCCCC3C)C2=C(C#N)C#N)C1 (stereo not shown) [Compound 104, {1-[3-(3,5-Dimethylpiperidino)propyl]-3-[3-(2-methylpiperidino)propyl]imidazolidin-2-ylidene}malononitrile] was run?
Answer: ≥ 80%

Question: How did the inhibition at 1 µM turn out when CC1CCCN(CCCN2CCN(CCCN3CC(C)CC(C)C3)C2=C(C#N)C#N)C1 (stereo not shown) [Compound 105, {1-[3-(3,5-Dimethylpiperidino)propyl]-3-[3-(3-methylpiperidino)propyl]imidazolidin-2-ylidene}malononitrile] was run?
Answer: ≥ 80%

Question: For CC1CCN(CCCN2CCN(CCCN3CC(C)CC(C)C3)C2=C(C#N)C#N)CC1 (stereo not shown) [Compound 106, {1-[3-(3,5-Dimethylpiperidino)propyl]-3-[3-(4-methylpiperidino)propyl]imidazolidin-2-ylidene}malononitrile], which inhibition at 1 µM is on record?
Answer: ≥ 80%

Question: CC1CC(C)CN(CCCN2CCN(CCCN3CCC(O)C3)C2=C(C#N)C#N)C1 (stereo not shown) [Compound 107, {1-[3-(3,5-Dimethylpiperidino)propyl]-3-[3-(3-hydroxypyrrolidin-1-yl)propyl]imidazolidin-2-ylidene}malononitrile] was tested. Which inhibition at 1 µM did it give?
Answer: ≥ 80%

Question: Which inhibition at 1 µM does the source give for CC1CC(C)CN(CCCN2CCN(CCCN3C(C)CCCC3C)C2=C(C#N)C#N)C1 (stereo not shown) [Compound 108, {1-[3-(2,6-Dimethylpiperidino)propyl]-3-[3-(3,5-dimethylpiperidino)propyl]imidazolidin-2-ylidene}malononitrile] here?
Answer: ≥ 80%

Question: With CC1CC(C)CN(CCCN2CCN(CCCN3CC(C)CC(C)C3)C2=C(C#N)C#N)C1 (stereo not shown) [Compound 109, {1,3-Bis[3-(3,5-dimethylpiperidino)propyl]imidazolidin-2-ylidene}malononitrile] as the compound, how does the inhibition at 1 µM read?
Answer: ≥ 80%

Question: CC1CC(C)CN(CCCN2CCN(CCCN3CCCC3C)C2=C(C#N)C#N)C1 (stereo not shown) [Compound 110, {1-[3-(3,5-Dimethylpiperidino)propyl]-3-[3-(2-methylpyrrolidin-1-yl)propyl]imidazolidin-2-ylidene}malononitrile] was tested. Which inhibition at 1 µM did it give?
Answer: ≥ 80%

Question: Which inhibition at 1 µM does the source give for CC1CCCN(CCCN2CCN(CCCN3CCCC3C)C2=C(C#N)C#N)C1 (stereo not shown) [Compound 112, {1-[3-(3-Methylpiperidino)propyl]-3-[3-(2-methylpyrrolidin-1-yl)propyl]imidazolidin-2-ylidene}malononitrile] here?
Answer: ≥ 80%

Question: For CC1CCCN1CCCN1CCN(CCCN2CCC(O)C2)C1=C(C#N)C#N (stereo not shown) [Compound 114, {1-[3-(3-Hydroxypyrrolidin-1-yl)propyl]-3-[3-(2-methylpyrrolidin-1-yl)propyl]imidazolidin-2-ylidene}malononitrile], which inhibition at 1 µM is on record?
Answer: ≥ 80%

Question: For C[C@@H]1CCCN1CCCN1CCN(CCCN2CCC[C@H]2C)C1=C(C#N)C#N [Compound 116, {1,3-Bis[3-((R)-2-methylpyrrolidin-1-yl)propyl]imidazolidin-2-ylidene}malononitrile Difumarate], which inhibition at 1 µM is on record?
Answer: ≥ 80%

Question: How did the inhibition at 1 µM turn out when CC1CCCN1CCCN1CCCN(CCCN2CCCC2C)C1=C(C#N)C#N (stereo not shown) [Compound 123, {1,3-Bis[3-(2-methylpyrrolidin-1-yl)propyl]hexahydropyrimidin-2-ylidene}malononitrile] was run?
Answer: ≥ 80%

Question: C[C@H]1CCCN1CCCN1C(=C(C#N)C#N)N(CCCN2CCC[C@@H]2C)c2ccccc21 [Compound 125, {1,3-Bis[3-((S)-2-methylpyrrolidin-1-yl)propyl]benzimidazolidin-2-ylidene}malononitrile] was tested. Which inhibition at 1 µM did it give?
Answer: ≥ 80%

Question: Which inhibition at 1 µM does the source give for CC1CCCN1CCCN1CCN(C2CCN(Cc3ccccc3)CC2)C1=C(C#N)C#N (stereo not shown) [Compound 127, {1-(1-Benzylpiperidin-4-yl)-3-[3-(2-methylpyrrolidin-1-yl)propyl]imidazolidin-2-ylidene}malononitrile] here?
Answer: ≥ 80%

Question: With CC(C)N1CCC(CN2CCN(CCCN3CCCCC3)C2=C(C#N)C#N)CC1 [Compound 133, {1-[(1-Isopropylpiperidin-4-yl)methyl]-3-(3-piperidinopropyl)imidazolidin-2-ylidene}malononitrile] as the compound, how does the inhibition at 1 µM read?
Answer: ≥ 80%

Question: For CC(C)N1CCC(CN2CCN(CC3CCN(C(C)C)CC3)C2=C(C#N)C#N)CC1 [Compound 134, [1,3-Bis(1-isopropylpiperidin-4-ylmethyl)imidazolidin-2-ylidene]malononitrile], which inhibition at 1 µM is on record?
Answer: ≥ 80%
